Experimental data published in publication PMC8041674 (European Journal of Nuclear Medicine and Molecular Imaging, 2020).
“And” between values parts separate entries of the source, which are not always exact repeats. Identical values can stand only once. Like-named read-outs stand apart in the source and are kept apart here.

Columns and labels:
[1] = Pharmacokinetic parameters of pridopidine in plasma; details: at steady state, 0 to 12 h after oral administration of pridopidine
[2] = system: plasma proteins; test: [^18F] fluspidine binding to plasma proteins (ultracentrifugation); format: in vitro ADME; details: human, read-out: fraction of free tracer in plasma, not bound to plasma proteins
[3] = molecular target: T1, sigma-1 receptor (S1R) (Homo sapiens, UniProt Q99720); test: [^18F] fluspidine distribution volume (S1R availability), one-tissue compartment model; format: in vivo; set-up: from tissue; host or cells: living human brain of male healthy volunteers and Huntington disease patients (in vivo PET); VND, non-displaceable distribution volume: unit not given here
Description: Application of the linear regression

[4] = molecular target: T1, sigma-1 receptor (S1R); test: Test-retest [^18F] fluspidine PET substudy; format: in vivo; set-up: from tissue; host or cells: living human brain of male healthy volunteers and Huntington disease patients (in vivo PET); details: two HVs, no pridopidine, VT of first and second PET scan
Description: The test-retest variability of [18F]Fluspidine binding (VT) was estimated for two HVs (age 27.5±3.5 yrs; body weight 67.0±11.3 kg) from PET data acquired at the same time point of the day within 11 and 14 weeks. No pridopidine was administered before imaging. The test-retest variability was calculated using linear regression of the first and second PET scan. Test-retest analysis was performed to calculate the uncertainty of the RO estimate. As estimated by the slope values of the linear regression, the variability was 0.887 (11.3%; subject #1) and 1.008 (0.8%; subject #2)(Supplementary Fig. S7; Supplementary

[5] = system: sigma-1 receptor (S1R) compared with D2R; details: in vitro and in vivo animal studies; cited from earlier work
[6] = molecular target: T1, sigma-1 receptor (S1R); details: for mean RO (S1R): 90 mg pridopidine; for RO (%), sigma-1 receptor occupancy: PET 2 h post dose
Description: This PET study consists of three PET substudies: the [^18F] fluspidine substudy (HVs, n = 11, HD, n = 3), the [^18F] fallypride substudy (HVs, n = 4), and the test-retest [^18F] fluspidine substudy (HVs, n = 2). All subjects were assigned to only one PET substudy. Subjects in the [^18F] fluspidine or [^18F] fallypride substudies were investigated twice within 4 weeks at the same time point of the day.
The doses were not established a priori but were based on the receptor occupancy results from previous cohort subjects. […] Because we observed near to complete S1R occupancy with 90 mg, we reduced the next dose to approximately one fourth. […] The total distribution volume VT of [^18F] fluspidine in the brain was computed from the corresponding TACs and the metabolite-corrected arterial input function using a one-tissue compartment model (1TCM).
The receptor occupancy (RO) is defined as the drug treatment-induced reduction of the receptor density. The values of RO are between 0 (no receptor occupancy) and 1 (100% receptor occupancy). […] Here, it is assumed that the non-displaceable distribution volume VND and the receptor occupancy RO have the same value in all brain regions. Application of the linear regression
1 VTPET1−VTPET2=ROVTPET1−VND yielded VND and RO. From the Lassen plot follows
2 RO=1−VTPET2−VND/VTPET1−VND

[7] = system: Huntington disease patients; details: HD patients, 45 mg bid, week 52, PRIDE-HD; cited from earlier work
[8] = system: S1R; details: behaviorally effective doses, [^11C]SA4503 PET; cited from earlier work
[9] = system: sigma-1 receptor (S1R) compared with dopamine D3 receptor (D3R); details: in vitro and in vivo animal studies; cited from earlier work
[10] = system: D2/D3R; details: behaviorally effective doses, [^11C] Raclopride PET; cited from earlier work
[11] = molecular target: T1, sigma-1 receptor (S1R); test: in vivo; details: for Emax: standard error in brackets
Description: Two models with Hill coefficient n fixed to 1 or optimized as a third parameter were investigated and characterized by the Akaike information criterion (AIC). Nonlinear parameter estimation was performed with Mathematica12 (Wolfram Research).

[12] = model plasma concentration Cavg2-4h (ng/ml), three-parameter Hill equation
[13] = model plasma concentration Cavg2-4h (ng/ml), two-parameter Hill equation (n = 1)
[14] = model weight adjusted dose (mg/kg), three-parameter Hill equation
[15] = model weight adjusted dose (mg/kg), two-parameter Hill equation (n = 1)

T1 sequence (Q99720 whole entry): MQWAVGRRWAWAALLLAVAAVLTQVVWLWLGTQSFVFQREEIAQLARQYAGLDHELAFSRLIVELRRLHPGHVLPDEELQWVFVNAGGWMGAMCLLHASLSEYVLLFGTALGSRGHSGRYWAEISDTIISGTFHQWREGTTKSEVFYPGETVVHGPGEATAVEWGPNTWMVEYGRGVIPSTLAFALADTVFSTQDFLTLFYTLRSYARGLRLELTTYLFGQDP

Compound: CS(=O)(=O)c1cccc(C2CCNCC2)c1 [TV45065]
- concentration of metabolite in plasma relative to unchanged pridopidine concentration [1]: less than 10%

Compound: FCC[C@@H]1OC2(CCN(Cc3ccccc3)CC2)c2ccccc21 [[^18F] fluspidine, (S)-(-)-[^18F] Fluspidine]
- fraction unbound [2]: 0.023 ± 0.007
- mean VT at baseline PET ([3]; HD (n = 3), cerebellum): 23.52 ± 12.66
- mean VT at baseline PET ([3]; HD (n = 3), corpus callosum): 8.89 ± 2.75
- mean VT at baseline PET ([3]; HD (n = 3), frontal cortex): 16.32 ± 6.76
- mean VT at baseline PET ([3]; HD (n = 3), medulla): 14.75 ± 7.28
- mean VT at baseline PET ([3]; HD (n = 3), midbrain): 16.46 ± 7.73
- mean VT at baseline PET ([3]; HD (n = 3), pons): 16.10 ± 8.74
- mean VT at baseline PET ([3]; HD (n = 3), striatum): 13.59 ± 5.98
- mean VT at baseline PET ([3]; HVs (n = 11), cerebellum, mean ± SD): 26.91 ± 4.49
- mean VT at baseline PET ([3]; HVs (n = 11), corpus callosum): 11.69 ± 2.40
- mean VT at baseline PET ([3]; HVs (n = 11), frontal cortex): 21.38 ± 3.37
- mean VT at baseline PET ([3]; HVs (n = 11), medulla): 16.63 ± 2.72
- mean VT at baseline PET ([3]; HVs (n = 11), midbrain): 19.31 ± 2.70
- mean VT at baseline PET ([3]; HVs (n = 11), pons): 19.13 ± 3.45
- mean VT at baseline PET ([3]; HVs (n = 11), striatum): 19.43 ± 2.95
- VND, non-displaceable distribution volume ([3]; Lassen plot, baseline vs post-pridopidine PET, patients with Huntington disease, individual subjects): 4.26 and 3.68 and 4.42
- test-retest variability, slope of the linear regression [4]: 0.887 and 1.008

Compound: CCCN1CCC(c2cccc(S(C)(=O)=O)c2)CC1 [pridopidine]
- fold higher affinity towards S1R compared with D2R [5]: ~ 100 fold
- mean RO (S1R) ([6]; HD patients): 87.4%
- RO (%), sigma-1 receptor occupancy ([6]; healthy volunteer (n = 1), single dose 0.5 mg): 17.6%
- RO (%), sigma-1 receptor occupancy ([6]; healthy volunteer (n = 1), single dose 1 mg): 41.8%
- RO (%), sigma-1 receptor occupancy ([6]; healthy volunteer, individual subject, single dose 45 mg): 87.2%
- RO (S1R), mean ([6]; healthy volunteers, 5 mg pridopidine): 78.0 ± 1.7%
- mean RO (S1R) ([6]; healthy volunteers): 91.2%
- RO (%), sigma-1 receptor occupancy ([6]; healthy volunteers, individual subjects, single dose 5 mg): 76.8% and 79.2%
- RO (%), sigma-1 receptor occupancy ([6]; healthy volunteers, individual subjects, single dose 22.5 mg): 84.1% and 89.2% and 86.7%
- RO (%), sigma-1 receptor occupancy ([6]; healthy volunteers, individual subjects, single oral dose 90 mg): 88.8% and 89.1% and 95.7%
- RO (%), sigma-1 receptor occupancy ([6]; patients with Huntington disease, individual subjects, single dose 90 mg): 80.4% and 93.2% and 88.5%
- decline from baseline in total functional capacity (TFC) compared with placebo [7]: significantly less decline from baseline
- S1R occupancy in rat brains [8]: high S1R occupancy
- fold higher affinity towards S1R compared with D3R [9]: ~ 30 fold
- D2/D3R occupancy in rat brains [10]: low D2/D3R occupancy
- Emax ([11]; model dose (mg), three-parameter Hill equation, healthy volunteers): 0.90 (0.01)
- Emax ([11]; model dose (mg), two-parameter Hill equation (n = 1), healthy volunteers): 0.93 (0.02)
- EC90 [11, 12]: 0.018 µg/mL and 0.01757 µg/mL
- Emax [11, 12]: 0.89 (0.02)
- EC90 [11, 13]: 0.028 µg/mL and 0.02852 µg/mL
- Emax [11, 13]: 0.91 (0.02)
- EC90 [11, 14]: 0.084 mg/kg
- Emax [11, 14]: 0.89 (0.02)
- EC90 [11, 15]: 0.135 mg/kg
- Emax [11, 15]: 0.93 (0.02)
- Hill coefficient ([11]; three-parameter model, all situations (concentration, dose, adjusted weight dose)): > 1
